Literature values, collected in patent US20040120994A1, “Transdermal therapeutic system containing testorone and method for its production thereof” (priority 2001, published 2004).

Tests used:
transport proteins = settings: in the blood

C[C@]12CC[C@H]3[C@@H](CCC4=CC(=O)CC[C@@]43C)[C@@H]1CC[C@@H]2O [testosterone]
plasma half-life: around 80 min. | testosterone bound to transport proteins (transport proteins): 98%
